# Results reported in US20120149718A1, “Amido Compounds” (priority 2010, published 2012).
# Key:
# human P2X7 = molecular target: T1, human P2X7 (Homo sapiens, UniProt Q99572); assay: Intracellular Calcium Flux (FLIPR) Assay; format: cell-based; settings: 1321N1 cells stably expressing full length human P2X7; agonist 100 μM BzATP; fluo-3 calcium flux; read-out: FLIPR pIC50 hP2X7-1321n1 (converted)
# T1 construct: 1321N1 cells stably expressing the full length human P2X7 gene (1321N1-hP2X7)
# T1 sequence (Q99572 1-595): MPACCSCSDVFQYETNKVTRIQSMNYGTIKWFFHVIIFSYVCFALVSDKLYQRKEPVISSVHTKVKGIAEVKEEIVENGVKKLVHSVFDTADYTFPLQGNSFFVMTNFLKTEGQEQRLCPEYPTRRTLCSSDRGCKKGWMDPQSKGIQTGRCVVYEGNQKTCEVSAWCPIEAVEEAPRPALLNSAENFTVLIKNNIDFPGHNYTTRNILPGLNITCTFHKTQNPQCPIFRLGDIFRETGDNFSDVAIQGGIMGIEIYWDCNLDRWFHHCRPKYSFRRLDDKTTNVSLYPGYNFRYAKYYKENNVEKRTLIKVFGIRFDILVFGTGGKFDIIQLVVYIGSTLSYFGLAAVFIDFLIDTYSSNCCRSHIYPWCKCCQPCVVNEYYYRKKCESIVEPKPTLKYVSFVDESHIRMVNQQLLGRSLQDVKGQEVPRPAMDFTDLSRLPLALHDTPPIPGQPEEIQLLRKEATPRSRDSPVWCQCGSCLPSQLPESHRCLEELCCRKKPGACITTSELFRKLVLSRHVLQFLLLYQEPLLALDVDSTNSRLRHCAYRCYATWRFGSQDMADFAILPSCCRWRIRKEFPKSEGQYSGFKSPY
# Experimental: Stock solutions of compounds were prepared from powders as a 10 mM DMSO stock solution. These solutions were stored at RT during the two week period of these experiments to prevent freeze-thaw of the DMSO stocks. The DMSO stocks were added to the appropriate assay buffer at a concentration of 10 μM, and then diluted serially to the final concentrations that were tested. No observable precipitate was formed at any time during this process. The aqueous solutions of compounds as well as ATP (Sigma A7699) and BzATP (Sigma B6396) were prepared fresh for each day of experiment.
# 1321N1 cells stably expressing the full length human P2X7 gene (1321N1-hP2X7) and HEK293 cells stably expressing the full length rat P2X7 gene (HEK293-rP2X7) were obtained from the Roche Cell Culture Facility. 1321N1-hP2X7 cells were grown in Dulbecco's Modified Eagle's Medium (DMEM) high glucose supplemented with 10% FBS and 250 μg/mL G418. HEK293-rP2X7 cells were grown in DMEM/F-12 supplemented with 10% FBS, 1 mM CaCl2, 2 mM MgCl2, 2 mM L-Glutamine and 500 μg/ml G418. Cells were split such that they never became >70% confluent.
# On the day prior to the experiment, 1321N1-hP2X7 or HEK293-rP2X7 cells were released into suspension with calcium-free PBS+Versene and washed by centrifugation with calcium-free PBS to remove the Versene. Cells were resuspended in growth medium at a density of 2.5×10^5 cells/mL and seeded into black walled, clear bottom 96 well plates (50,000 cells/well) approximately 18 hr prior to intracellular calcium flux experiments.
# On the day of the experiment, plates were washed with FLIPR buffer (calcium- and magnesium-free Hank's Balanced Salt Solution (HBSS) supplemented with 10 mM Hepes, 2.5 mM probenecid and 2 mM calcium chloride) using a BIO-TEK 96 channel plate washer and incubated with […] fluo-3 dye at 37° C. for one hr. The dye was then removed by plate washing and the cells were allowed to equilibrate for 20 min at room temperature with antagonist or vehicle (FLIPR buffer). Agonist (100 μM BzATP final concentration for hP2X7; 5 μM BzATP final concentration or rP2X7) was added online with the FLIPR and fluorescence measurements made at 1 sec intervals for 60 sec followed by 3 sec intervals for a further 4 min (5 min total). A final addition of 5 μM ionomycin was made and the maximal BzATP-evoked fluorescence normalized to the maximal ionomycin-evoked fluorescence.
IC50 (human P2X7) [nM],melting point [°C],Structure (SMILES)
501,177.5 to 177.9,"O=C(Nc1nc2ccccc2o1)C(Cc1ccc(F)cc1)c1ccc(F)cc1F (stereo not shown) [Compound I-29, N-Benzooxazol-2-yl-2-(2,4-difluoro-phenyl)-3-(4-fluoro-phenyl)-propionamide]"
389,149 to 151,"CN(C)CCNC(=O)c1ccc(C(Cc2ccc(F)cc2)C(=O)Nc2nc3ccccc3o2)cc1 (stereo not shown) [Compound I-34, 4-[1-(Benzooxazol-2-ylcarbamoyl)-2-(4-fluoro-phenyl)-ethyl]-N-(2-dimethylamino-ethyl)-benzamide]"
302,105.7 to 108.9,"Cc1ccccc1CC(C(=O)Nc1nc2ccccc2o1)c1ccc(S(C)(=O)=O)cc1 (stereo not shown) [Compound I-2, N-Benzooxazol-2-yl-2-(4-methanesulfonyl-phenyl)-3-o-tolyl-propionamide]"
741,99 to 100,"CCOCc1cnc(NC(=O)C(Cc2ccc(F)cc2)c2ccc(S(C)(=O)=O)cc2)cn1 (stereo not shown) [Compound I-22, N-(5-Ethoxymethyl-pyrazin-2-yl)-3-(4-fluoro-phenyl)-2-(4-methanesulfonyl-phenyl)-propionamide]"
347,134 to 136,"O=C(NCCO)c1ccc(C(Cc2ccc(F)cc2)C(=O)Nc2nc3ccccc3o2)cc1 (stereo not shown) [Compound I-33, 4-[1-(Benzooxazol-2-ylcarbamoyl)-2-(4-fluoro-phenyl)-ethyl]-N-(2-hydroxy-ethyl)-benzamide]"
63.1,109 to 110,"CS(=O)(=O)c1ccc(C(Cc2ccc(F)cc2)C(=O)Nc2nc3ccccc3o2)cc1 (stereo not shown) [Compound I-7, N-Benzooxazol-2-yl-3-(4-fluoro-phenyl)-2-(4-methanesulfonyl-phenyl)-propionamide]"
794,127 to 128,"CS(=O)(=O)c1ccc(C(Cc2ccc(F)cc2Cl)C(=O)Nc2nc3ccccc3o2)cc1 (stereo not shown) [Compound I-6, N-Benzooxazol-2-yl-3-(2-chloro-4-fluoro-phenyl)-2-(4-methanesulfonyl-phenyl)-propionamide]"
282,87 to 90,"CC(C)(O)c1ccc(C(Cc2ccc(F)cc2)C(=O)Nc2nc3ccccc3o2)cc1 (stereo not shown) [Compound I-31, N-Benzooxazol-2-yl-3-(4-fluoro-phenyl)-2-[4-(1-hydroxy-1-methyl-ethyl)-phenyl]-propionamide]"
20.4,137 to 139,"NC(=O)c1ccc(C(Cc2ccc(F)cc2)C(=O)Nc2nc3ccccc3o2)cc1 (stereo not shown) [Compound I-32, 4-[1-(Benzooxazol-2-ylcarbamoyl)-2-(4-fluoro-phenyl)-ethyl]-benzamide]"
457,122 to 125,"CCOC(=O)c1ccc(C(Cc2ccc(F)cc2)C(=O)Nc2nc3ccccc3o2)cc1 (stereo not shown) [Compound I-30, 4-[1-(Benzooxazol-2-ylcarbamoyl)-2-(4-fluoro-phenyl)-ethyl]-benzoic acid ethyl ester]"
708,172.4 to 175.3,"Cc1cnc(NC(=O)C(Cc2ccc(F)cc2)c2ccc(S(C)(=O)=O)cc2)cn1 (stereo not shown) [Compound I-19, 3-(4-Fluoro-phenyl)-2-(4-methanesulfonyl-phenyl)-N-(5-methyl-pyrazin-2-yl)-propionamide]"
851,191.6 to 192.7,"CS(=O)(=O)c1ccc(C(Cc2ccc(F)cc2)C(=O)Nc2cncc(Cl)n2)cc1 (stereo not shown) [Compound I-25, N-(6-Chloro-pyrazin-2-yl)-3-(4-fluoro-phenyl)-2-(4-methanesulfonyl-phenyl)-propionamide]"
741,99 to 100,"CS(=O)(=O)c1cccc(C(Cc2ccc(F)cc2)C(=O)Nc2nc3ccccc3o2)c1 (stereo not shown) [Compound I-12, N-Benzooxazol-2-yl-3-(4-fluoro-phenyl)-2-(3-methanesulfonyl-phenyl)-propionamide]"
20.4,128 to 130,"CS(=O)(=O)c1ccc(C(Cc2ccc(F)cc2)C(=O)Nc2nc3ccc(CO)cc3o2)cc1 (stereo not shown) [Compound I-20, 3-(4-Fluoro-phenyl)-N-(6-hydroxymethyl-benzooxazol-2-yl)-2-(4-methanesulfonyl-phenyl)-propionamide]"
81.3,118 to 119,"CS(=O)(=O)c1ccc(C(Cc2ccccc2)C(=O)Nc2nc3ccccc3o2)cc1 (stereo not shown) [Compound I-4, N-Benzooxazol-2-yl-2-(4-methanesulfonyl-phenyl)-3-phenyl-propionamide]"
224,106 to 107,"CCOC(=O)c1cnc(NC(=O)C(Cc2ccc(F)cc2)c2ccc(S(C)(=O)=O)cc2)cn1 (stereo not shown) [Compound I-15, 5-[3-(4-Fluoro-phenyl)-2-(4-methanesulfonyl-phenyl)-propionylamino]-pyrazine-2-carboxylic acid ethyl ester]"
537,107 to 108,"CS(=O)(=O)c1ccc(C(Cc2ccccc2Cl)C(=O)Nc2nc3ccccc3o2)cc1 (stereo not shown) [Compound I-5, N-Benzooxazol-2-yl-3-(2-chloro-phenyl)-2-(4-methanesulfonyl-phenyl)-propionamide]"
389,193.5 to 194.8,"Cc1ccccc1CC(C(=O)Nc1cnc(Br)cn1)c1ccc(S(C)(=O)=O)cc1 (stereo not shown) [Compound I-1, N-(5-Bromo-pyrazin-2-yl)-2-(4-methanesulfonyl-phenyl)-3-o-tolyl-propionamide]"
646,69 to 82.3,"COCc1cnc(NC(=O)C(Cc2ccc(F)cc2)c2ccc(S(C)(=O)=O)cc2)cn1 (stereo not shown) [Compound I-21, 3-(4-Fluoro-phenyl)-2-(4-methanesulfonyl-phenyl)-N-(5-methoxymethyl-pyrazin-2-yl)-propionamide]"
339,82.8 to 98.7,"CS(=O)(=O)c1ccc(C(Cc2cccc(F)c2)C(=O)Nc2cnc(CO)cn2)cc1 (stereo not shown) [Compound I-26, 3-(3-Fluoro-phenyl)-N-(5-hydroxymethyl-pyrazin-2-yl)-2-(4-methanesulfonyl-phenyl)-propionamide]"
229,101.9 to 105.9,"COc1ccc(CC(C(=O)Nc2nc3ccccc3o2)c2ccc(S(C)(=O)=O)cc2)cc1 (stereo not shown) [Compound I-9, N-Benzooxazol-2-yl-2-(4-methanesulfonyl-phenyl)-3-(4-methoxy-phenyl)-propionamide]"
166,,"Cc1ccc2oc(NC(=O)C(Cc3ccc(F)cc3)c3ccc(S(C)(=O)=O)cc3)nc2c1 (stereo not shown) [Compound I-37, 3-(4-Fluoro-phenyl)-2-(4-methanesulfonyl-phenyl)-N-(5-methyl-benzooxazol-2-yl)-propionamide]"
31.6,,"CS(=O)(=O)c1ccc(C(Cc2ccc(F)cc2)C(=O)Nc2nc3cnccc3o2)cc1 (stereo not shown) [Compound I-51, 3-(4-Fluoro-phenyl)-2-(4-methanesulfonyl-phenyl)-N-oxazolo[4,5-c]pyridin-2-yl-propionamide]"
81.3,,"Cc1ccccc1C[C@@H](C(=O)Nc1nc2ccccc2o1)c1ccc(S(C)(=O)=O)cc1 [Compound I-11, (R)—N-Benzooxazol-2-yl-2-(4-methanesulfonyl-phenyl)-3-o-tolyl-propionamide]"
1070,,"CC(C)(O)c1cnc(NC(=O)C(Cc2ccc(F)cc2)c2ccc(S(C)(=O)=O)cc2)cn1 (stereo not shown) [Compound I-17, 3-(4-Fluoro-phenyl)-N-[5-(1-hydroxy-1-methyl-ethyl)-pyrazin-2-yl]-2-(4-methanesulfonyl-phenyl)-propionamide]"
